Source: PubChem BioAssay (NCI)
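Values below derive from 48-hour exposures of cells grown in 96-well plates, with endpoints linearly interpolated between the two concentrations bracketing the appropriate inhibition level. Definition used: TGI = concentration required for complete inhibition of growth.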

What was measured:
Assay in all cases: NCI anticancer screen, dose series, 48 h
LXFL 529 NSCLC = tested on: LXFL 529 NSCLC
SNB-78 CNS = tested on: SNB-78 CNS
DMS 114 small cell lung = tested on: DMS 114 small cell lung
XF 498 CNS = tested on: XF 498 CNS
DMS 273 small cell lung = tested on: DMS 273 small cell lung
KM20L2 colon = tested on: KM20L2 colon
HOP-18 NSCLC = tested on: HOP-18 NSCLC
DLD-1 colon = tested on: DLD-1 colon

With `CN(C)CCC(=O)c1ccccc1` as the compound, how does the TGI (LXFL 529 NSCLC) read?
Its TGI is 44.7 µM.

And the TGI (SNB-78 CNS)?
The TGI was 69 µM.

What about the TGI (DMS 114 small cell lung) of the same compound?
The TGI was greater than 56.2 µM.

And the TGI (XF 498 CNS)?
Its TGI is 38.5 µM.

What about the TGI (DMS 273 small cell lung) of the same compound?
Its TGI is greater than 100 µM.

And the TGI (KM20L2 colon)?
Its TGI is greater than 59.1 µM.

What about the TGI (HOP-18 NSCLC) of the same compound?
Its TGI is greater than 68.9 µM.

And the TGI (DLD-1 colon)?
The TGI was 41 µM.

Which results are given for `Cc1ccccc1N1C(=O)C2C=CC(n3[nH]c(=O)n(Cc4ccccc4)c3=O)CC2C1=O` (configuration not stated)?
TGI (LXFL 529 NSCLC): > 100 µM; TGI (SNB-78 CNS): > 100 µM; TGI (DMS 114 small cell lung): > 100 µM; TGI (XF 498 CNS): > 100 µM; TGI (DMS 273 small cell lung): > 100 µM; TGI (KM20L2 colon): > 100 µM; TGI (HOP-18 NSCLC): > 100 µM; TGI (DLD-1 colon): > 100 µM

With `CCCNC(=S)NNC(=O)CSc1nc(-c2ccccc2)c(-c2ccccc2)[nH]1` as the compound, how does the TGI (LXFL 529 NSCLC) read?
The TGI was greater than 100 µM.

And the TGI (SNB-78 CNS)?
Its TGI is greater than 100 µM.

What about the TGI (DMS 114 small cell lung) of the same compound?
The TGI was greater than 100 µM.

What about the TGI (XF 498 CNS) of the same compound?
The TGI was greater than 100 µM.

And the TGI (DMS 273 small cell lung)?
The TGI was greater than 100 µM.

What about the TGI (KM20L2 colon) of the same compound?
Its TGI is greater than 100 µM.

What about the TGI (DLD-1 colon) of the same compound?
Its TGI is greater than 100 µM.

`CN=C1CC2c3cc(OC)c(OC)cc3CCN2C2=C1C(=O)CC(C)(C)C2` (configuration not stated) was tested. Which TGI (LXFL 529 NSCLC) did it give?
The TGI was greater than 100 µM.

And the TGI (SNB-78 CNS)?
Its TGI is greater than 100 µM.

And the TGI (DMS 114 small cell lung)?
Its TGI is greater than 100 µM.

And the TGI (DMS 273 small cell lung)?
Its TGI is greater than 100 µM.

What about the TGI (KM20L2 colon) of the same compound?
Its TGI is greater than 100 µM.

And the TGI (DLD-1 colon)?
Its TGI is greater than 100 µM.

Which results are given for `N#Cc1c2ccccc2cn1-c1ccc(F)cc1`?
TGI (LXFL 529 NSCLC): > 100 µM; TGI (DMS 114 small cell lung): > 100 µM; TGI (XF 498 CNS): > 100 µM; TGI (KM20L2 colon): > 100 µM; TGI (DLD-1 colon): > 100 µM

For `S=c1sc2c(Cl)nc(Cl)nc2n1-c1ccccc1`, which TGI (LXFL 529 NSCLC) is on record?
The TGI was 31.7 µM.

And the TGI (SNB-78 CNS)?
The TGI was greater than 100 µM.

And the TGI (DMS 114 small cell lung)?
Its TGI is 27.3 µM.

What about the TGI (XF 498 CNS) of the same compound?
The TGI was greater than 100 µM.

What about the TGI (DMS 273 small cell lung) of the same compound?
The TGI was greater than 100 µM.

What about the TGI (KM20L2 colon) of the same compound?
Its TGI is greater than 100 µM.

And the TGI (HOP-18 NSCLC)?
Its TGI is greater than 100 µM.

What about the TGI (DLD-1 colon) of the same compound?
The TGI was 29.9 µM.
